Data set [1] is described as follows: side effects in the Example 2 patient. Type of data set: in vivo, human. As to conditions: Example 2, person, oral. The text has this: Example 2 Mature human ingests 7 to 10 drops of emu oil per day, […].
For data set [2] the following is noted: subjects with age-related memory decline, 60 days of treatment; cited from earlier work.
The conditions of data set [3]: rats; cited from earlier work.
For data set [4] the following is noted: humans; cited from earlier work.
The conditions of data set [5]: multi-infarct dementia patients; cited from earlier work.

With `CC[C@H](C)C(=O)O[C@H]1C[C@@H](C)C=C2C=C[C@H](C)[C@H](CC[C@@H]3C[C@@H](O)CC(=O)O3)[C@H]21` [Mevocore], the side effects entry in data set [1] is “has suffered side effects, including hair loss”.

Take `O=C(O)[C@@H]1CCC(O)=N1` [pyroglutamate, 2-oxo-pyrrolidone carboxylic acid]: in data set [2], the verbal memory functions entry is “effective in improving verbal memory functions”. In data set [3], the anti-anxiety effects result was “has anti-anxiety effects”; the memory and learning result is “improves memory and learning”. Further, the alcohol-induced memory deficits result in data set [4] is “effective”. Also, in data set [5], the attention entry is on record as “significant increase of attention”; the consolidation of memory entry is “statistically significant improvement”; the “psychological tests of short-term retrieval, long-term retrieval and long-term storage of memory” value is reported as “improvement”.

These data come from US6951658B1, “Emu-based compositions for mental well-being and method of use” (Pearson Research & Development Limited, priority 2003, dated 2005).
